Reference: paper PMC12667553, “TWF2 Drives Tumor Progression and Sunitinib Resistance in Renal Cell Carcinoma through Hippo Signaling Suppression” (Advanced Science, 2025)
Residue numbers refer to the chain shown, from its start.

Key:
[1] = molecular target: T1, TWF2 (Twinfilin actin-binding protein; Flag-TWF2) (Homo sapiens, UniProt Q6IBS0, M99A); test: isothermal titration calorimetry; conditions: 25 °C; 20 mM HEPES pH 7.5, 300 mM NaCl, 2 mM MgCl2; 1 mM Sal E titrated into 100 µM TWF2; single-site model
T1 construct: Flag-tagged TWF2 overexpressed in 293F cells, purified with anti-Flag magnetic beads
T1 sequence (Q6IBS0 2-349 M99A): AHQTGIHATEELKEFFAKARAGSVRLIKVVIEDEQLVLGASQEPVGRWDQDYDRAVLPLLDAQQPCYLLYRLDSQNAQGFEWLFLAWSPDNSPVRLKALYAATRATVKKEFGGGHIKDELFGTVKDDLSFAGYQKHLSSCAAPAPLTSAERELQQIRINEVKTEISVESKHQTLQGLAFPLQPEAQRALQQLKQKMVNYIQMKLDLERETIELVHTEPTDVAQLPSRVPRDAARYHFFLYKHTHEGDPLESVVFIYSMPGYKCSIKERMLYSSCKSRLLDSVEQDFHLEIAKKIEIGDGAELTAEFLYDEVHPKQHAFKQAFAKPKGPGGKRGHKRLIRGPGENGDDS

[2] = molecular target: T2, TWF2 (Twinfilin actin-binding protein; Flag-TWF2) (Homo sapiens, UniProt Q6IBS0); test: isothermal titration calorimetry; conditions: 25 °C; 20 mM HEPES pH 7.5, 300 mM NaCl, 2 mM MgCl2; 1 mM Sal E titrated into 100 µM TWF2; single-site model
T2 construct: Flag-tagged TWF2 overexpressed in 293F cells, purified with anti-Flag magnetic beads
T2 sequence (Q6IBS0 2-349): T1 sequence (Q6IBS0 2-349 M99A) with A98M
Text: isothermal titration calorimetry on TWF2 (Twinfilin actin-binding protein; Flag-TWF2) | direct binding affinity between Sal E and purified TWF2, with a dissociation constant (K d)

Kd [2]: 16.7 µM
Structure (SMILES): O=C(/C=C/c1ccc(O)c(O)c1/C(=C\c1ccc(O)c(O)c1)C(=O)O[C@H](Cc1ccc(O)c(O)c1)C(=O)O)O[C@H](Cc1ccc(O)c(O)c1)C(=O)O [Salvianolic acid E]
loss of Sal E binding [1]: showing loss of Sal E binding upon M99 mutation in TWF2
